Test results: patent publication US7053113B2, “Mannich base prodrugs of 3-(pyrrol-2-yl-methylidene)-2-indolinone derivatives” (Sugen, Inc., priority 2000, dated 2006)

Experiments:
[1] = Plasma Stability Test: conversion of prodrug to drug after IV administration to dogs; format: in vivo; settings: IV at 2 mg/mL, HPLC analysis of blood plasma for 4 hours following dosing
Description: The prodrug (3Z)-3-[(3,5-dimethyl-1H-pyrrol-2-yl)-methylidene]-1-(1-pyrrolidinylmethyl)-1,3-dihydro-2H-indol-2-one was administered IV at 2 mg/mL to dogs. Levels of both prodrug and drug (3(Z)-3-[(3,5-dimethyl-1H-pyrrol-2-yl)-methylidene]-1,3-dihydro-2H-indol-2-one) were followed by HPLC analysis of blood plasma for 4 hours following dosing.

[2] = Aqueous solubility of the prodrug compared with the parent compound; format: physicochemical; settings: compared with parent compound (II)

For Cc1cc(C)c(/C=C2\C(=O)N(CN3CCCC3)c3ccccc32)[nH]1 [Example 2, (3Z)-3-[(3,5-dimethyl-1H-pyrrol-2-yl)-methylidene]-1-(1-pyrrolidinylmethyl)-1,3-dihydro-2H-indol-2-one], the “prodrug converted into drug (area under the curve of drug concentration vs time)” value [1] was 80% and the “aqueous solubility over the parent compound” value [2] was “increased aqueous solubility”.
